Source: BindingDB's records for doi:10.1002/cbic.201200521 (University of Cambridge, 2013)

biological target: DNA repair and recombination protein RadA (Pyrococcus furiosus (strain ATCC 43587 / DSM 3638 / JCM 8422 / Vc1), UniProt O74036); assay: Thermal Denaturation Assay
Method: The thermal-shift denaturation assay was performed on an iCycler iQ Real Time Detection System (BioRad) in 96-well iCycler iQ PCR plates sealed with optically clear lids.

Kd [µM] | SMILES
2100 | Oc1ccc2[nH]ccc2c1
2100 | Cc1ccc2[nH]ccc2c1 [Indole, 2]
570 | COC(=O)[C@@H](N)Cc1c[nH]c2ccccc12 [L-Methyl ester tryptophan, 8]

SMILES | Kd [µM]
c1ccc2[nH]ncc2c1 [Indazole, 5] | 1000
